Results published in patent US7868188B2, “5-heteroaryl thiazoles and their use as PI3K inhibitors” (AstraZeneca AB, priority 2004, dated 2011).
Where a name gives a salt, the structure may show the parent alone.

Legend:
[1] = biological target: mTOR PI kinase-related kinase (Homo sapiens, UniProt P42345); test: Test (b) In Vitro mTOR PI Kinase-Related Kinase Assay (AlphaScreen); assay type: biochemical; details: read-out: IC50 versus mTOR PI kinase-related kinase
Experimental: The assay used AlphaScreen technology (Gray et al., Analytical Biochemistry, 2003, 313: 234-245) to determine the ability of test compounds to inhibit phosphorylation by recombinant mTOR.
The HEK293 FLAG-tagged mTOR (1362-2549) stable cell line was routinely maintained at 37° C. with 5% CO2 up to a confluency of 70-90% in Dulbecco's modified Eagle's growth medium (DMEM; Invitrogen Limited, Paisley, UK Catalogue No. 41966-029) containing 10% heat-inactivated foetal calf serum (FCS; Sigma, Poole, Dorset, UK, Catalogue No. F0392), 1% L-glutamine (Gibco, Catalogue No. 25030-024) and 2 mg/ml Geneticin (G418 sulphate; Invitrogen Limited, UK Catalogue No. 10131-027). Following expression in the mammalian HEK293 cell line, expressed protein was purified using the FLAG epitope tag using standard purification techniques.
Test compounds were prepared as 10 mM stock solutions in DMSO and diluted into water as required to give a range of final assay concentrations. Aliquots (2 μl) of each compound dilution were placed into a well of a Greiner 384-well low volume (LV) white polystyrene plate (Greiner Bio-one). […]
Each reaction was stopped by the addition of 10 μl of a mixture of EDTA (50 mM), bovine serum albumin (BSA; 0.5 mg/ml) and Tris-HCl pH7.4 buffer (50 mM) containing p70 S6 Kinase (T389) 1A5 Monoclonal Antibody (Cell Signalling Technology, Catalogue No. 9206B) and AlphaScreen Streptavidin donor and Protein A acceptor beads (200 ng; Perkin Elmer, Catalogue No. 6760002B and 6760137R respectively) were added and the assay plates were left for about 20 hours at room temperature in the dark. The resultant signals arising from laser light excitation at 680 nm were read using a Packard Envision instrument.
Phosphorylated biotinylated peptide is formed in situ as a result of mTOR mediated phosphorylation. […] Upon laser light excitation at 680 nm, the donor bead: acceptor bead complex produces a signal that can be measured. […]
mTOR enzyme inhibition for a given test compound was expressed as an IC50 value.

[2] = system: phosphorylation of Serine 473 in Akt (MDA-MB-468 cells); test: Test (c) In Vitro phospho-Ser473 Akt Assay; assay type: cell-based; details: Homo sapiens, read-out: IC50 versus Serine 473 in Akt
Experimental: This assay determines the ability of test compounds to inhibit phosphorylation of Serine 473 in Akt as assessed using Acumen Explorer technology (Acumen Bioscience Limited), a plate reader that can be used to rapidly quantitate features of images generated by laser-scanning.
A MDA-MB-468 human breast adenocarcinoma cell line (LGC Promochem, Teddington, Middlesex, UK, Catalogue No. HTB-132) was routinely maintained at 37° C. with 5% CO2 up to a confluency of 70-90% in DMEM containing 10% heat-inactivated FCS and 1% L-glutamine.
For the assay, the cells were detached from the culture flask using ‘Accutase’ (Innovative Cell Technologies Inc., San Diego, Calif., USA; Catalogue No. AT104) using standard tissue culture methods and resuspended in media to give 1.7×10^5 cells per ml. Aliquots (90 μl) were seeded into each of the inner 60 wells of a black Packard 96 well plate (PerkinElmer, Boston, Mass., USA; Catalogue No. 6005182) to give a density of ˜15000 cells per well. Aliquots (90 μl) of culture media were placed in the outer wells to prevent edge effects. The cells were incubated overnight at 37° C. with 5% CO2 to allow them to adhere.
On day 2, the cells were treated with test compounds and incubated for 2 hours at 37° C. with 5% CO2. Test compounds were prepared as 10 mM stock solutions in DMSO and serially diluted as required with growth media to give a range of concentrations that were 10-fold the required final test concentrations. Aliquots (10 μl) of each compound dilution were placed in a well (in triplicate) to give the final required concentrations. As a minimum response control, each plate contained wells having a final concentration of 100 μM LY294002 (Calbiochem, Beeston, UK, Catalogue No. 440202). As a maximum response control, wells contained 1% DMSO instead of test compound. Following incubation, the contents of the plates were […] by treatment with a 1.6% aqueous formaldehyde solution (Sigma, Poole, Dorset, UK, Catalogue No. F1635) at room temperature for 1 hour.
All subsequent aspiration and wash steps were carried out using a Tecan 96 well late washer (aspiration speed 10 mm/sec). The fixing solution was removed and the contents of the plates were washed with phosphate-buffered saline (PBS; 50 μl; Gibco, Catalogue No. 10010015). The contents of the plates were treated for 10 minutes at room temperature with an aliquot (50 μl) of a cell permeabilisation buffer consisting of a mixture of PBS and 0.5% Tween-20. […] An aliquot of PBS (50 μl) was added to each well and the plates were sealed with black plate sealers and the fluorescence signal was detected and analysed.
Fluorescence dose response data obtained with each compound were analysed and the degree of inhibition of Serine 473 in Akt was expressed as an IC50 value.

Sequence of mTOR PI kinase-related kinase (P42345 1362-2549): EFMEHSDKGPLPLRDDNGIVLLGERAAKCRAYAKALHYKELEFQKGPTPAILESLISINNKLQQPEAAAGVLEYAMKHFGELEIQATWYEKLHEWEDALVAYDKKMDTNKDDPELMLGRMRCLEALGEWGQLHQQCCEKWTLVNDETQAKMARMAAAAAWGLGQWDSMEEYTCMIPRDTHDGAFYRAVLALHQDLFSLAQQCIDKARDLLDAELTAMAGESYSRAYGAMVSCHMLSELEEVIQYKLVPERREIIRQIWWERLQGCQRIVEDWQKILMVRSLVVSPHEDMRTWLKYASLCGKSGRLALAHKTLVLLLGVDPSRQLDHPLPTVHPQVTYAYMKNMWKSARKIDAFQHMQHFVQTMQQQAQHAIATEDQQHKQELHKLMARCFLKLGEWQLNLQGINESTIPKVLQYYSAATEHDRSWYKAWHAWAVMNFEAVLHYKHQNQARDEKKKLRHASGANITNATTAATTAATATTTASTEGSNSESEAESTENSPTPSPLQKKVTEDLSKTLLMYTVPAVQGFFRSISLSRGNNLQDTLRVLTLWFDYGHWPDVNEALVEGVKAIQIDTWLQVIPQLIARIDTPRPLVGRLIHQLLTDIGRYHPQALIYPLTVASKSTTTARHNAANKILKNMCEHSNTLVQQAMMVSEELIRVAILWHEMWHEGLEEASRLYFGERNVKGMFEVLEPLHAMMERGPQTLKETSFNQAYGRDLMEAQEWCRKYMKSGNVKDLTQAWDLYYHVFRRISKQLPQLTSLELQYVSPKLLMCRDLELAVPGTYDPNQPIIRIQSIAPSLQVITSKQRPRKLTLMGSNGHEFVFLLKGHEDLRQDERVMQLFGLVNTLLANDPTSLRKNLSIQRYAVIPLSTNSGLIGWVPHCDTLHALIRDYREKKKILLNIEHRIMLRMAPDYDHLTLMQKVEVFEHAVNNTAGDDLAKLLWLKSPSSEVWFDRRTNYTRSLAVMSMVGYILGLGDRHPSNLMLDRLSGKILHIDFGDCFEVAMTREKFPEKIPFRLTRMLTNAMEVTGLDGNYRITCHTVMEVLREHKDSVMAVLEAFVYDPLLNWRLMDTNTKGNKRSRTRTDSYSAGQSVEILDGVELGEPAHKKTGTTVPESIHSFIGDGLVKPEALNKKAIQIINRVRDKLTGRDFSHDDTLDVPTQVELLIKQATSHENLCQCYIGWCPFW

## CC(=O)Nc1nc(C)c(-c2cnc(Cl)c(NCc3ccc(F)cc3)c2)s1 [Compound No. 3 within Example 79, N-{5-[6-Chloro-5-(4-fluorobenzylamino)pyridin-3-yl]-4-methyl-1,3-thiazol-2-yl}acetamide]
[1]
  IC50: ~2000 nM
[2]
  IC50: ~200 nM

## CC(=O)Nc1nc(C)c(-c2cnc(Cl)c(S(=O)(=O)Nc3ccccc3)c2)s1 [Compound No. 4 within Example 73, N-{5-[6-Chloro-5-(N-phenylsulfamoyl)pyridin-3-yl]-4-methyl-1,3-thiazol-2-yl]acetamide]
[1]
  IC50: ~700 nM
[2]
  IC50: ~200 nM

## CC(=O)Nc1nc(C)c(-c2cnc(Cl)c(NS(C)(=O)=O)c2)s1 [Example 28, N-[5-(6-Chloro-5-methylsulfonylaminopyridin-3-yl)-4-methyl-1,3-thiazol-2-yl]acetamide trifluoroacetate]
[1]
  IC50: ~20 nM
[2]
  IC50: ~300 nM
